Source: US9193722B2, “Tri-cyclic pyrazolopyridine kinase inhibitors” (Vertex Pharmaceuticals Incorporated, priority 2008, dated 2015)

Legend:
Type in all cases: biochemical
[1] = molecular target: PKC theta kinase (Homo sapiens, UniProt Q04759); assay: PKC theta kinase inhibition, coupled-enzyme (NADH absorbance) assay, Ki; conditions: 240 μM ATP, 18 nM PKC theta kinase, 30° C.
How it was run: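 Coupled-enzyme kinase assay following NADH absorbance at 340 nm, in 100 mM HEPES pH 7.5, 10 mM MgCl2, 25 mM NaCl, 0.1 mM EDTA, 0.01% Brij. Compound in DMSO preincubated with enzyme 10 min at 30 °C. Ki from initial rates by non-linear regression.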

[2] = molecular target: PKC delta kinase (Homo sapiens, UniProt Q05655); assay: PKC delta kinase inhibition, coupled-enzyme (NADH absorbance) assay, Ki; conditions: 150 μM ATP, 46 nM PKC delta kinase, 30° C.; read-out: Ki PKC delta
How it was run: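 PKC delta in 100 mM HEPES pH 7.5, 10 mM MgCl2, 25 mM NaCl, 0.1 mM EDTA, 0.01% Brij, equilibrated 10 min at 30° C with compound from DMSO stock. Started with ATP at 150 μM final; NADH-coupled absorbance at 340 nm followed 15 min at 30° C. Ki from initial rates by non-linear regression.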

[3] = molecular target: PKC alpha kinase (Homo sapiens, UniProt P17252); assay: PKC alpha kinase inhibition, coupled-enzyme (NADH absorbance) assay, Ki; conditions: 130 μM ATP, 4.5 nM PKC alpha kinase, 30° C.
How it was run: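 Enzyme in 100 mM HEPES pH 7.5, 10 mM MgCl2, 100 μM CaCl2, 0.01% Brij, preincubated with compound 10 min at 30 °C. Reaction started with 130 μM ATP (final); NADH consumption followed at 340 nm for 15 min at 30 °C. Ki fitted by non-linear regression of initial rates.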

PKC delta kinase, sequence (Q05655 whole entry): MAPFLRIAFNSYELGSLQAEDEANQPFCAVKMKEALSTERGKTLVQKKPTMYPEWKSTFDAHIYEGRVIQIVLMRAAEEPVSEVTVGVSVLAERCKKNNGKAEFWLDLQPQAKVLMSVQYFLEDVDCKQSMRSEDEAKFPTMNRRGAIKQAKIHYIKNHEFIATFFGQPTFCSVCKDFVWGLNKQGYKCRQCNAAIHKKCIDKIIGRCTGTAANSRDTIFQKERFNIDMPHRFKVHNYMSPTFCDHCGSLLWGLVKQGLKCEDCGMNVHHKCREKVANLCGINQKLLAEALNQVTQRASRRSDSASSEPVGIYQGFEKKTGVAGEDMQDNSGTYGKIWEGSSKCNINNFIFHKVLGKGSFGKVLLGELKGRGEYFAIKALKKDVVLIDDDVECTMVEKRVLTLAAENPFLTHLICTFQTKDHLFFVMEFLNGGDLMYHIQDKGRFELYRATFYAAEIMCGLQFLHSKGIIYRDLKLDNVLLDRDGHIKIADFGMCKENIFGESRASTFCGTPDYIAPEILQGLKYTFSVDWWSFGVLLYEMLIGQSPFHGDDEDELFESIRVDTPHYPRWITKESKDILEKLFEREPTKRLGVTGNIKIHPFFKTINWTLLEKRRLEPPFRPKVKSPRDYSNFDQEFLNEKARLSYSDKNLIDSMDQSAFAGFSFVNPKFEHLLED
PKC theta kinase, sequence (Q04759 whole entry): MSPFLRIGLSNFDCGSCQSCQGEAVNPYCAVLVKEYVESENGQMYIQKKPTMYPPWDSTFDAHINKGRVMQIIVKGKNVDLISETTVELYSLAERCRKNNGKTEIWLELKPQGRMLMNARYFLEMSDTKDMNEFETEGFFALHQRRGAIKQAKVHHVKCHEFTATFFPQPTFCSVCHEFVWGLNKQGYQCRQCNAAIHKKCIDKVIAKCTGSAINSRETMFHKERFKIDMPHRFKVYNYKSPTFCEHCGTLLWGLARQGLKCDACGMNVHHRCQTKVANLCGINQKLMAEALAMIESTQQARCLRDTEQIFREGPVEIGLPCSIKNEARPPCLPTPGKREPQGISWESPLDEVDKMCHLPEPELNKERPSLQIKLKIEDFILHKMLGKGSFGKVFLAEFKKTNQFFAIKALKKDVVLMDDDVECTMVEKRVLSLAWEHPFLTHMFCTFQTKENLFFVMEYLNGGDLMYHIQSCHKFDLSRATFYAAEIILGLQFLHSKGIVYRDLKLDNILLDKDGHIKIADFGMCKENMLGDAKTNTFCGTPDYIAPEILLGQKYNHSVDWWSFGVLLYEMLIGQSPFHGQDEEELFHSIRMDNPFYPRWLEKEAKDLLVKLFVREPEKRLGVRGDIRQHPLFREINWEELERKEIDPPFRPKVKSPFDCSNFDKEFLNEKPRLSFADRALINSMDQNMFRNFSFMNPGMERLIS

Row | SMILES | Ki [1] [nM] | Ki [2] [nM] | Ki [3] [nM]
1 | CC(C)CC1(CO)CN(c2ccc(F)c(-c3n[nH]c4ncccc34)n2)CCC1N (stereo not drawn) [Compound 293] | < 50 | < 50 | < 500
2 | C=C(F)c1cc(-c2n[nH]c3ncccc23)nc(N2CCC(N)CC2)c1 [Compound 106] | < 500 | > 1250 | > 1250
3 | CC(C)(O)C1CN(c2ccc(C(F)(F)F)c(-c3n[nH]c4ncccc34)n2)CCN1 (stereo not drawn) [Compound 87] | < 500 | > 2000 | > 1250
4 | CC(C)CC1(C)CN(c2ccc(C(F)(F)F)c(-c3n[nH]c4ncccc34)n2)CCN1 (stereo not drawn) [Compound 82] | < 50 | < 500 | < 500
5 | C[C@](O)(c1ccccc1)[C@@H]1CN(c2ccc(F)c(-c3n[nH]c4ncccc34)n2)CCN1 [Compound 274] | < 500 | > 1250 | > 1250
6 | CC(C)CC1(CN)CCCN(c2ccc(C(F)(F)F)c(-c3n[nH]c4ncccc34)n2)C1 (stereo not drawn) [Compound 352] | < 500 | < 2800 | > 1250
7 | CN(C)C(=O)C1CN(c2ccc(C(F)(F)F)c(-c3n[nH]c4ncccc34)n2)CCN1 (stereo not drawn) [Compound 215] | > 700 | > 1250 | > 1250
8 | CC(C)(F)C1CN(c2cccc(-c3n[nH]c4ncccc34)n2)CCN1 (stereo not drawn) [Compound 148] | < 50 | < 500 | > 1250
9 | CC(C)C(C)(O)C1CN(c2ccc(Cl)c(-c3n[nH]c4ncccc34)n2)CCN1 (stereo not drawn) [Compound 437] | < 50 | < 2800 | > 1250
10 | FC(F)(F)c1ccc(N2CCN[C@@H](Cc3ccccc3)C2)nc1-c1n[nH]c2ncccc12 [Compound 121] | < 500 | > 1250 | > 1250
11 | CC(C)CC1CCCN(c2ccc(F)c(-c3n[nH]c4ncccc34)n2)C1 (stereo not drawn) [Compound 334] | > 700 | > 1250 | > 1250
12 | CNC1CCN(c2ccc(F)c(-c3n[nH]c4ncccc34)n2)CC1 [Compound 369] | < 500 | > 1250 | > 1250
13 | C=C(F)c1cc(-c2n[nH]c3ncccc23)nc(N2CCNCC2)c1 [Compound 92] | < 500 | < 500 | > 1250

Results, then the compound that gave them:

Row | Ki [1] [nM] | Ki [2] [nM] | Ki [3] [nM] | SMILES
14 | < 500 | > 2000 | < 500 | COc1cccc(C2CN(c3cccc(-c4n[nH]c5ncccc45)n3)CCN2)c1 (stereo not drawn) [Compound 35]
15 | < 500 | > 1250 | > 1250 | CC(F)(F)CC1CN(c2ccc(C(F)(F)F)c(-c3n[nH]c4ncccc34)n2)CCN1 (stereo not drawn) [Compound 119]
16 | < 500 | > 1250 | > 1250 | Fc1ccc(N2CCCC(C3CCCN3)C2)nc1-c1n[nH]c2ncccc12 (stereo not drawn) [Compound 314]
17 | > 700 | > 1250 | > 1250 | OCC1CCN(c2ccc(C(F)(F)F)c(-c3n[nH]c4ncccc34)n2)CC1 [Compound 321]
18 | < 50 | > 1250 | > 1250 | CCCC1CN(c2ccc(C(F)(F)F)c(-c3n[nH]c4ncccc34)n2)CCN1 (stereo not drawn) [Compound 113]
19 | > 700 | > 1250 | > 1250 | CC1CN(c2ccc(C(F)(F)F)c(-c3n[nH]c4ncccc34)n2)CC(C2(O)CCC2)N1 (stereo not drawn) [Compound 261]
20 | < 500 | < 2800 | > 1250 | Cc1ccc(-c2n[nH]c3ncccc23)nc1N1CCN[C@@H](CC(C)C)C1 [Compound 40]
21 | < 50 | < 500 | > 1250 | CC(C)(O)C1CN(c2cccc(-c3n[nH]c4ncccc34)n2)CCN1 (stereo not drawn) [Compound 105]
22 | < 500 | > 1250 | > 1250 | NC(=O)CC1CN(c2ccc(C(F)(F)F)c(-c3n[nH]c4ncccc34)n2)CCN1 (stereo not drawn) [Compound 209]
23 | > 700 | > 1250 | > 1250 | CCNC(=O)C1CN(c2ccc(C(F)(F)F)c(-c3n[nH]c4ncccc34)n2)CCN1 (stereo not drawn) [Compound 216]
